Assay results taken from publication PMC8318231, “Rate-of-Kill (RoK) assays to triage large compound sets for Chagas disease drug discovery: Application to GSK Chagas Box” (PLoS Neglected Tropical Diseases, 2021).

Key:
[1] = test system: T. cruzi Tulahuen trypomastigotes; assay: T. cruzi trypomastigote assay (Cell Titer-Glo viability, ATP luminescence); format: cell-based, Trypanosoma cruzi; details: for Trypomastigotes pIC50 48 hours: 48 hours incubation; for Trypomastigotes pIC50 48 hours / Trypomastigotes pIC50 72 hours: pIC50 = -log10 IC50 in molar units; for Trypomastigotes pIC50 72 hours: 72 hours incubation; for 72 pIC50 (trypomastigotes, raw data of Fig 1D): 72 hours, plotted values, censored values given without sign; for 48 pIC50 / 72 pIC50: trypomastigote assay; for 48 pIC50: 48 h; for 72 pIC50: 72 h
Method in brief: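 Compounds were tested in dose response or once at a final 5 μM against 5 × 10^4 trypomastigotes per well (DMEM, 2% FBS), collected on days 5–8 from LLC-MK2 infected cultures. ATP luminescence via CellTiter-Glo reports live parasites; DMSO defines 0% and cell-free wells 100% effect.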

[2] = test system: H9c2 (rat cardiomyocytes); assay: RoK assay, number of host cells nuclei (drug-related cytotoxicity, H9c2 output, Cmin_Tox); details: H9c2 host cells
Method in brief: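 Host-cell toxicity is read as DRAQ5-stained nuclei counts from automated confocal imaging of T. cruzi-infected H9c2 cells, tracked across time at each concentration. Cmin_Tox denotes the lowest compound concentration dropping host cell number under 50% of initial cell density.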

Structure (SMILES) | Trypomastigotes pIC50 48 hours [1] | Trypomastigotes pIC50 72 hours [1] | Cmin_Tox [2] | 72 pIC50 (trypomastigotes, raw data of Fig 1D) [1] | 48 pIC50 ([1]; figure 1A) | 72 pIC50 ([1]; figure 1A) | 72 pIC50 ([1]; figure 1B)
Cn1nccc1-c1cc(OC(CN)c2ccccc2)cnc1-c1ccco1.O=C(O)C(F)(F)F.O=C(O)C(F)(F)F (stereo not shown) [TCMDC-143221] | 4.4 | < 4.3 | >50 µM | – | – | – | –
CS(=O)(=O)c1ccc(CC(=O)Nc2nc(-c3ccc(Cl)s3)cs2)cc1 [TCMDC-143224] | < 4.3 | < 4.3 | >50 µM | < 4.3 | < 4.3 | < 4.3 | < 4.3
Cl.O=c1cc(NCCCNC2CCOc3c(I)cc(Cl)cc32)[nH]c2ccccc12 (stereo not shown) [TCMDC-139489] | 5.8 | 6 | 50.0 µM | – | – | – | –
O=S(=O)(c1cccc(CSc2nnc(-c3ccc4c(c3)OCO4)o2)c1)N1CCOCC1 [TCMDC-143197] | < 4.3 | < 4.3 | >50 µM | < 4.3 | < 4.3 | < 4.3 | < 4.3
COc1ccc(S(=O)(=O)Nc2ccccc2OC)cc1NC(=O)CCCc1c[nH]c2ccccc12 [TCMDC-143256] | 5 | 4.9 | >50 µM | – | – | – | –
CC(=O)Nc1nc(-c2cc(C)ccc2C)c(C)s1 [TCMDC-143207] | < 4.3 | < 4.3 | >50 µM | < 4.3 | < 4.3 | < 4.3 | < 4.3
O=C(NCCc1cccnc1)c1csc(-c2ccccc2)n1 [TCMDC-143203] | < 4.3 | < 4.3 | >50 µM | < 4.3 | < 4.3 | < 4.3 | < 4.3
COc1ccc(C(C)N(C)c2ncc3c(N)nc(N)nc3n2)cc1F (stereo not shown) [TCMDC-143298] | 6.5 | 6.7 | >50 µM | – | – | – | –
O=C(O)C(F)(F)F.O=c1ccc2ccc(F)c3c2n1C[C@H]3CN1CCC(NCc2cc3ccccc3o2)CC1 [TCMDC-143301] | 4.5 | 4.4 | >50 µM | – | – | – | –
Cc1c(C(=O)NCCCCn2ccnc2)oc2c(C)cccc12 [TCMDC-143304] | < 4.3 | < 4.3 | >50 µM | < 4.3 | < 4.3 | < 4.3 | < 4.3
O=C(NCC1CCCCC1)c1cc(=O)c2ccccc2o1 [TCMDC-123621] | 5 | 5 | 50.0 µM | 5 | 5 | 5 | 5
CS(=O)(=O)NC1CCC(Oc2cc3cnccc3cc2-c2ccsc2)CC1.O=C(O)C(F)(F)F (stereo not shown) [TCMDC-143302] | 4.5 | < 4.3 | >50 µM | – | – | – | –
COc1ccc(C(C)(C)C)cc1S(=O)(=O)n1ccnc1 [TCMDC-143275] | < 4.3 | < 4.3 | >50 µM | < 4.3 | < 4.3 | < 4.3 | < 4.3
COc1ccc(S(=O)(=O)NC(C)C)cc1Nc1ncc(-c2cccc(F)c2)cn1 [TCMDC-143248] | < 4.3 | < 4.3 | >50 µM | < 4.3 | < 4.3 | < 4.3 | < 4.3
COc1ccc(C(=O)Nc2cc(C(F)(F)F)ccc2N2CCOCC2)c(OC)c1 [TCMDC-143310] | 5.8 | 6 | >50 µM | – | – | – | –
Cc1cccnc1CN1CCN(CCCOc2ccc(-c3ccc(C(N)=O)cc3)cc2)CC1 [TCMDC-143291] | 4.8 | 4.4 | >50 µM | – | – | – | –
COc1ccc(NS(=O)(=O)c2cc(NC(=O)Cc3ccc(C)cc3)ccc2N2CCOCC2)cc1 [TCMDC-143313] | 5.9 | 6.3 | 0.6 µM | – | – | – | –
COc1ccc2c(Cl)c(C(=O)N3CCC3)sc2c1Cl [TCMDC-143262] | 6.2 | 6.4 | >50 µM | – | – | – | –
COc1ccc(NS(=O)(=O)c2cc(-c3cc(C)[nH]n3)ccc2C)cc1OC [TCMDC-143194] | 4.7 | 5.2 | 18.5 µM | – | – | – | –
Cc1cccc(N2CCCN(Cc3c[nH]c4ccccc34)CC2)n1 [TCMDC-143185] | 6.7 | – | 5.6 µM | – | – | – | –
COc1cc(NC(=O)Nc2cccc(CNC(=O)OC3CCCCC3)c2)ccc1-c1cnco1 [TCMDC-143376] | – | 4.9 | 16.7 µM | – | – | – | –
O=C(NCc1ccncc1)c1ccccc1N1CCCN(C(=O)Cc2ccc(F)c(F)c2)CC1.O=C(O)C(F)(F)F.O=C(O)C(F)(F)F [TCMDC-143300] | < 4.3 | < 4.3 | >50 µM | < 4.3 | < 4.3 | < 4.3 | < 4.3
CC1CN(S(=O)(=O)c2ccc(NC(=O)c3cc(C4CC4)nc4c3cnn4C(C)C)cc2)CC(C)O1 (stereo not shown) [TCMDC-143200] | 5.3 | 4.8 | >50 µM | – | – | – | –
CCN(C)Cc1ccc(N2CCC(NS(=O)(=O)c3ccc4c(c3)CCO4)CC2)nc1 [TCMDC-143244] | < 4.3 | < 4.3 | >50 µM | < 4.3 | < 4.3 | < 4.3 | < 4.3
O=C(NCCc1cccnc1)c1ccc(-c2ccccc2F)o1 [TCMDC-143190] | < 4.3 | < 4.3 | >50 µM | < 4.3 | < 4.3 | < 4.3 | < 4.3
FC(F)(F)c1cc(C2CCCN(Cc3c[nH]c4ccccc34)C2)nc2ncnn12.O=C(O)C(O)C(O)C(=O)O (stereo not shown) [TCMDC-143311] | 4.9 | 5.2 | >50 µM | – | – | – | –
O=C(NCCc1ccccc1Cl)c1cccn1-c1cccnc1 [TCMDC-143253] | < 4.3 | < 4.3 | >50 µM | < 4.3 | < 4.3 | < 4.3 | < 4.3
CCC(=O)Nc1ccc(C(=O)Nc2ccccc2-c2ccccc2)cc1 [TCMDC-143286] | 5.9 | 6 | >50 µM | – | – | – | –
CCCn1c(NC(=O)Cc2ccc(Cl)cc2)nc2ccccc21 [TCMDC-143279] | 5.9 | 6 | >50 µM | – | – | – | –
CCN(CC)S(=O)(=O)c1ccc(C(=O)Nc2cc(C)nn2-c2nc(C)c(C)c(=O)[nH]2)cc1 [TCMDC-143273] | 6.2 | 6.3 | >50 µM | – | – | – | –
